The text below walks through data of PubChem BioAssay AID1259407 (Chemical Carcinogenesis Research Information System (CCRIS), 2018).

Calls of active or inactive are those of the source. No rule for the calls is given here.

The subject of the series is CCRIS mutagenicity, Ames/micronucleus/aberration tests. Kind of series: CCRIS mutagenicity studies.
Setting [1] is: Test System: AMES SALMONELLA TYPHIMURIUM, Strain/Indicator: TA98, Metabolic Activation: HAMSTER, LIVER, S-9, AROCLOR 1254 (10%), Method: PREINCUBATION
Where [2] appears, read: Test System: AMES SALMONELLA TYPHIMURIUM, Strain/Indicator: TA98, Metabolic Activation: NONE, Method: PREINCUBATION
[3] abbreviates: Test System: AMES SALMONELLA TYPHIMURIUM, Strain/Indicator: TA98, Metabolic Activation: RAT, LIVER, S-9, AROCLOR 1254 (10%), Method: PREINCUBATION
[4] abbreviates: Test System: AMES SALMONELLA TYPHIMURIUM, Strain/Indicator: TA100, Metabolic Activation: NONE, Method: PREINCUBATION
Where [5] appears, read: Test System: AMES SALMONELLA TYPHIMURIUM, Strain/Indicator: TA100, Metabolic Activation: RAT, LIVER, S-9, AROCLOR 1254 (10%), Method: PREINCUBATION
Where [6] appears, read: Test System: AMES SALMONELLA TYPHIMURIUM, Strain/Indicator: TA1535, Metabolic Activation: HAMSTER, LIVER, S-9, AROCLOR 1254 (10%), Method: PREINCUBATION
The mark [7] stands for this setting: Test System: AMES SALMONELLA TYPHIMURIUM, Strain/Indicator: TA1535, Metabolic Activation: NONE, Method: PREINCUBATION
Where [8] appears, read: Test System: AMES SALMONELLA TYPHIMURIUM, Strain/Indicator: TA1535, Metabolic Activation: RAT, LIVER, S-9, AROCLOR 1254 (10%), Method: PREINCUBATION
The mark [9] stands for this setting: Test System: AMES SALMONELLA TYPHIMURIUM, Strain/Indicator: TA1537, Metabolic Activation: HAMSTER, LIVER, S-9, AROCLOR 1254 (10%), Method: PREINCUBATION
Setting [10] is: Test System: AMES SALMONELLA TYPHIMURIUM, Strain/Indicator: TA1535, Metabolic Activation: NONE, Method: STANDARD PLATE.

For the compound `C=CCOC(=O)c1ccccc1N`, the mutagenic call was “inactive; negative” under setting [1]; “inactive; negative” under setting [2]; “inactive; negative” under setting [3]; “inactive; negative” (Test System: AMES SALMONELLA TYPHIMURIUM, Strain/Indicator: TA100, Metabolic Activation: HAMSTER, LIVER, S-9, AROCLOR 1254 (10%), Method: PREINCUBATION); “inactive; negative” under setting [4]; “inactive; negative” under setting [5]. Further, the mutagenic call was “inactive; negative” under setting [6]; “inactive; negative” under setting [7]; “inactive; negative” under setting [8]; “inactive; negative” under setting [9]; “inactive; negative” (Test System: AMES SALMONELLA TYPHIMURIUM, Strain/Indicator: TA1537, Metabolic Activation: NONE, Method: PREINCUBATION); “inactive; negative” (Test System: AMES SALMONELLA TYPHIMURIUM, Strain/Indicator: TA1537, Metabolic Activation: RAT, LIVER, S-9, AROCLOR 1254 (10%), Method: PREINCUBATION).

Consider `Cc1cc(C)cc(N)c1`, for which the mutagenic call reads like this: (Test System: AMES SALMONELLA TYPHIMURIUM, Strain/Indicator: TA97, Metabolic Activation: HAMSTER, LIVER, S-9, AROCLOR 1254 (10%), Method: PREINCUBATION) “inactive; negative”; (Test System: AMES SALMONELLA TYPHIMURIUM, Strain/Indicator: TA97, Metabolic Activation: NONE, Method: PREINCUBATION) “inactive; negative”; (Test System: AMES SALMONELLA TYPHIMURIUM, Strain/Indicator: TA97, Metabolic Activation: RAT, LIVER, S-9, AROCLOR 1254 (10%), Method: PREINCUBATION) “inactive; negative”; under setting [1], “inactive; negative”; under setting [2], “inactive; negative”; under setting [3], “inactive; negative”. Also, the mutagenic call by setting is: under setting [4], “inactive; negative”; under setting [5], “inactive; negative”; under setting [6], “inactive; negative”; under setting [7], “inactive; negative”; under setting [8], “inactive; negative”; under setting [9], “inactive; negative”.

As for `Cc1cc(N)c([N+](=O)[O-])c(C)c1N`, the mutagenic call (Test System: AMES SALMONELLA TYPHIMURIUM, Strain/Indicator: TA98, Metabolic Activation: NONE, Method: STANDARD PLATE) is “inactive; negative”; the mutagenic call (Test System: AMES SALMONELLA TYPHIMURIUM, Strain/Indicator: TA98, Metabolic Activation: RAT, LIVER, S-9, AROCLOR 1254, Method: STANDARD PLATE) was “inactive; negative”; the mutagenic call (Test System: AMES SALMONELLA TYPHIMURIUM, Strain/Indicator: TA100, Metabolic Activation: NONE, Method: STANDARD PLATE) was “inactive; negative”; the mutagenic call (Test System: AMES SALMONELLA TYPHIMURIUM, Strain/Indicator: TA100, Metabolic Activation: RAT, LIVER, S-9, AROCLOR 1254, Method: STANDARD PLATE) was “inactive; negative”; the mutagenic call under setting [10] was “inactive; negative”; the mutagenic call (Test System: AMES SALMONELLA TYPHIMURIUM, Strain/Indicator: TA1535, Metabolic Activation: RAT, LIVER, S-9, AROCLOR 1254, Method: STANDARD PLATE) is “inactive; negative”. Moreover, the mutagenic call is, setting by setting: (Test System: AMES SALMONELLA TYPHIMURIUM, Strain/Indicator: TA1537, Metabolic Activation: NONE, Method: STANDARD PLATE) “inactive; negative”; (Test System: AMES SALMONELLA TYPHIMURIUM, Strain/Indicator: TA1537, Metabolic Activation: RAT, LIVER, S-9, AROCLOR 1254, Method: STANDARD PLATE) “inactive; negative”; (Test System: AMES SALMONELLA TYPHIMURIUM, Strain/Indicator: TA1538, Metabolic Activation: NONE, Method: STANDARD PLATE) “inactive; negative”; (Test System: AMES SALMONELLA TYPHIMURIUM, Strain/Indicator: TA1538, Metabolic Activation: RAT, LIVER, S-9, AROCLOR 1254, Method: STANDARD PLATE) “inactive; negative”.

Consider `O=NN(CCO)CC(=O)O`, for which the mutagenic call under setting [4] was “active; positive”.

Turning to `O=c1[nH]cc(N(CCCl)CCCl)c(=O)[nH]1`, the mutagenic call by setting is: under setting [10], “active; positive”; (Test System: E. COLI, Strain/Indicator: WP2 UVRA, Metabolic Activation: HAMSTER, LIVER, S-9, AROCLOR 1254, Method: STANDARD PLATE) “active; positive”; (Test System: E. COLI, Strain/Indicator: WP2 UVRA, Metabolic Activation: HAMSTER, LIVER, S-9, Method: STANDARD PLATE) “active; positive”; (Test System: E. COLI, Strain/Indicator: WP2 UVRA, Metabolic Activation: MOUSE, LIVER, S-9, Method: STANDARD PLATE) “active; positive”; (Test System: E. COLI, Strain/Indicator: WP2 UVRA, Metabolic Activation: NONE, Method: STANDARD PLATE) “active; positive”; (Test System: E. COLI, Strain/Indicator: WP2 UVRA, Metabolic Activation: RAT, LIVER, S-9, AROCLOR 1254, Method: STANDARD PLATE) “active; positive”. Besides, the mutagenic call is, setting by setting: (Test System: E. COLI, Strain/Indicator: WP2 UVRA, Metabolic Activation: RAT, LIVER, S-9, Method: STANDARD PLATE) “active; positive”; (Test System: MOUSE LYMPHOMA, Strain/Indicator: L5178Y (TK+/TK-), Metabolic Activation: NONE, Method: SUSPENSION/PLATE) “active; positive”; (Test System: MOUSE LYMPHOMA, Strain/Indicator: L5178Y (TK+/TK-), Metabolic Activation: RAT, LIVER, S-9, AROCLOR 1254, Method: SUSPENSION/PLATE) “active; positive”.
